Laboratory results: patent US20260124192A1, “COMPOUNDS, COMPOSITIONS, AND METHODS OF TREATING RNA VIRAL INFECTIONS” (priority 2024, published 2026)
pEC50, pIC50: −log10 of the molar value. Read-outs that look alike come from different tables or passages of the source.

How the values were obtained:
[1] = tested on: CoV229E; assay: Anti-Coronavirus 229E cytoprotection (CPE) assay, MRC-5 (Method 3); assay type: cell-based, human Coronavirus 229E; details: for EC50: Human coronavirus 229E, MRC5, […]
[2] = Cytotoxicity, XTT, MRC-5; details: human
[3] = tested on: MCF7 wild-type cell lines; assay: MCF7 growth inhibition assay (Cell Titre Glo 2.0); assay type: cell-based; details: Homo sapiens
Procedure: The growth inhibition properties of inhibitors on MCF7 wild-type cell lines were evaluated using the Cell Titre Glo 2.0 cell viability reagent. The assay utilized 384-well black clear bottom plates with 20 μl of MCF7 wild-type cell suspension mixed with reference/test compounds and 20 μl of Cell Titre Glo 2.0 reagent. Cells were seeded at a density of 1000 cells/well in DMEM High Glucose culture media+10% Fetal Bovine Serum (FBS). Staurosporine and Camptothecin served as positive controls for confirming cytotoxicity at a concentration of 30 μM, and vehicle control of 1% DMSO was used to standardize conditions across all test points. The assay and culture media both contained 1% DMSO. Assays were conducted in duplicate for each concentration of the test compounds. The incubation period for the assay was set at 120 hours, after which growth inhibition was assessed. Using a multi-mode reader, the assay readout was based on luminescence measured in Relative Light Units (RLUs). The viability luminescence signal was monitored continually from the same wells over an extended period, allowing for detailed analysis of cell viability. Measurements were taken using an integration time ranging from 0.25 to 1 second across plates designated for various time points.
Cells were maintained and seeded in 384 […] plates, maintaining 1000 cells/well. Seeded plates were incubated at 37° C., 5% CO2 for 16-18 hours to ensure optimal cell adherence and growth. Post-incubation, reference, and test compounds were added carefully to the wells for further processing. Plates were incubated again at 37° C., 5% CO2 for 120 hours (5 days) to allow compound effects. This was followed by the addition of CTG reagent as per the kit's instruction protocol for 30 minutes and RLU data to be recorded. Post plate read data to be analyzed using GraphPad Prism for software IC50 value generation.
Next, the NCEs were tested for selective estrogen regulation modulation activity by using a growth inhibition assay. The assay is performed on MCF7 cells, which are derived from a hormone-dependent breast cancer that stops growing upon estrogen receptor inhibition. […] Staurosporine and Camptothecin served as positive controls for cytotoxicity and 1% DMSO as the vehicle control.

[4] = tested on: HCV genotype 1b replicon; assay: microbe, parasite or virus in culture; assay type: cell-based, Hepatitis C Virus; details: for pEC50 / HCV 1b - percent effect: Huh-luc/neo-ET replicon; for pEC50: 72 hours, luciferase, read-out: HCV 1b - EC50; for HCV 1b - percent effect: @ 10 μM
[5] = XTT cell viability assay, Huh-luc/neo-ET; assay type: cell-based; details: human, Huh-luc/neo-ET cells, XTT, 72 hours, read-out: HCV 1b - TC50
Procedure: (§1) Twenty-four hours after seeding the cells, the cell culture supernatant was removed from each well and replaced with 175 μL fresh complete medium minus G418. Test compounds were evaluated at a high-test concentration of 10 μM and five serial half-logarithmic dilutions in three biological replicates. In three biological replicates, Sofosbuvir was evaluated in parallel at a high-test concentration of 1 μM and five serial half-logarithmic dilutions. Compounds were first serially diluted in DMSO to 400× of each final in-well concentration. An intermediate 8× solution was prepared in a complete medium and then added to the cells in a volume of 25 μL per well. A complete medium containing an equal percentage of DMSO (v/v) was added to vehicle-treated control cells. The final DMSO concentration was 0.25% (v/v) for all samples. The cells were incubated for an additional 72 hours at 37° C./5% CO2, then HCV replication was measured by luciferase activity and cell viability was assessed in parallel using an XTT colorimetric assay.
(§2) Huh-luc/neo-ET cell viability was measured at 72 hours after treatment using the tetrazolium dye XTT (2,3-bis(2-methoxy-4-nitro-5-sulfophenyI)-5[(phenylamino)carbonyl]-2H-tetrazolium hydroxide). Mitochondrial enzymes of metabolically active cells metabolize XTT-tetrazolium to a soluble formazan product. XTT solution was prepared fresh at 1 mg/mL in DMEM. Phenazine methosulfate (PMS) solution was prepared at 0.15 mg/mL in PBS and stored in the dark at −20° C. An XTT/PMS stock was prepared immediately before use by adding 40 μL of PMS per ml of XTT solution. Fifty microliters (50 μL) XTT/PMS were added per well, and the cells were incubated for 4 hours at 37° C. The cell culture plates were then sealed with adhesive plate sealers and shaken gently or inverted several times to mix the soluble formazan product. The formazan product was measured spectrophotometrically by absorbance at 450/650 nm on a Vmax plate reader (Molecular Devices). The raw data in Softmax Pro 5.4.2 software was imported into Microsoft Excel for further analysis. Data are presented as absorbance values (450/650 nm) or the percentage of viable cells relative to vehicle-treated control (mean+1—standard deviation, n=3 biological replicates from one independent experiment).

[6] = tested on: MRC-5 cells; assay: Cytotoxicity, XTT, MRC-5; details: read-out: CoV229E - TC50; MRC-5; XTT; six days
[7] = tested on: Huh-luc/neo-ET cells; assay: XTT cell viability assay, Huh-luc/neo-ET; assay type: cell-based; details: XTT, 72 hours, read-out: HCV 1b - TC50
Procedure: as §1, §2

[8] = read-out: CoV229E - EC50 (μM), MRC-5, XTT cytoprotection, six days
[9] = MCF7 growth inhibition, 120 hours, read-out: MCF-7 IC50

SMILES | EC50 [1, 8] | CC50 at 6 days [2] | pIC50 [3, 9] | pEC50 ([4]; Hepatitis C virus) | CC50 at 72 h [5] | also measured
O=C(O)c1ccc(-c2c(CC3CCCC3)c3ccc(F)cc3n2Cc2ccc(OCCN3CCCCC3)cc2)cc1 [MCAA-02] | 2.78 µM | > 5 µM | < 5.00 | < 5.00 | > 10 µM | 
O=[N+]([O-])c1cccc2c1nc(-c1ccc(F)cc1)n2Cc1ccc(OCCN2CCCCC2)cc1 [MCAA-13] | 2.96 µM | > 5 µM | 5.61 | 5.15 | > 10 µM | 
O=[N+]([O-])c1cccc2nc(-c3ccc(F)cc3)n(Cc3ccc(OCCN4CCCCC4)cc3)c12 [MCAA-12] | 2.94 µM | > 5 µM | 5.94 | 5.56 | > 10 µM | 
COc1ccc(-c2c(Cc3ccc(OCCN4CCCCC4)cc3)c3ccc(OC)cc3n2C)cc1 [MCAA-01] |  |  |  |  |  | pEC50 ([1]; MRC-5, XTT cytoprotection, six days, read-out: CoV229E - EC50): 5.73; CC50 [6]: > 5 µM; CC50 [7]: > 10 µM
Fc1ccc(-c2cc3sccc3n2Cc2ccc(OCCN3CCCCC3)cc2)cc1 [MCAA-06] | 0.29 µM | 1.53 µM | 5.42 | < 5.00 | > 10 µM | 
O=[N+]([O-])c1cccc2c1nc(-c1ccc(F)cc1)n2Cc1ccc(OCCC2CCCCC2)cc1 [MCAA-15] | > 5 µM | > 5 µM | 6.24 |  | > 10 µM | HCV 1b - percent effect [4]: 38% @
Nc1cccc2nc(-c3ccc(F)cc3)n(Cc3ccc(OCCN4CCCCC4)cc3)c12 [MCAA-08] |  | > 5 µM | < 5.00 | 5.02 | > 10 µM | CoV229E - percent effect ([1]; @ 5 μM, MRC-5): 33% @
Nc1cccc2c1nc(-c1ccc(F)cc1)n2Cc1ccc(OCCN2CCCCC2)cc1 [MCAA-10] | 2.85 µM | > 5 µM | 6.28 | 5.14 | > 10 µM | 
O=[N+]([O-])c1cccc2nc(-c3ccc(F)cc3)n(Cc3ccc(OCCC4CCCCC4)cc3)c12 [MCAA-14] |  | > 5 µM | 5.36 |  | > 10 µM | CoV229E - percent effect ([1]; @ 5 μM, MRC-5): 31% @; HCV 1b - percent effect [4]: 34% @
O=C(O)c1ccc(-c2c(CC3CCCC3)c3ccc(F)cc3n2Cc2ccc(OCCC3CCCCC3)cc2)cc1 [MCAA-03] |  | 2.47 µM | < 5.00 | 5.07 | > 10 µM | CoV229E - percent effect ([1]; @ 5 μM, MRC-5): 24% @
Cc1c(-c2ccc(O)cc2)n(Cc2ccc(OCCC3CCCCC3)cc2)c2ccc(O)cc12 [MCAA-04] |  | 2.7 µM | 5.65 | < 5.00 | > 10 µM | CoV229E - percent effect ([1]; @ 1.58 μM, MRC-5): 25% @
Nc1cccc2c1nc(-c1ccc(F)cc1)n2Cc1ccc(OCCC2CCCCC2)cc1 [MCAA-11] | 2.74 µM | > 5 µM | 5.78 | 5.38 | 5.82 µM | 
Fc1ccc(-c2cc3sccc3n2Cc2ccc(OCCC3CCCCC3)cc2)cc1 [MCAA-07] |  | > 5 µM | < 5.00 |  | > 10 µM | CoV229E - percent effect ([1]; @ 5 μM, MRC-5): 11% @; HCV 1b - percent effect [4]: 30% @
Nc1cccc2nc(-c3ccc(F)cc3)n(Cc3ccc(OCCC4CCCCC4)cc3)c12 [MCAA-09] |  | > 5 µM | 5.92 | < 5.00 | > 10 µM | CoV229E - percent effect ([1]; @ 5 μM, MRC-5): 13% @
COc1ccc(-c2c(Cc3ccc(OCCC4CCCCC4)cc3)c3ccc(OC)cc3n2C)cc1 [MCAA-05] | > 5 µM | > 5 µM | < 5.00 | < 5.00 | > 10 µM | 
CC(C)OC(=O)[C@H](C)N[P@](=O)(OC[C@H]1O[C@@H](n2ccc(=O)[nH]c2=O)[C@](C)(F)[C@@H]1O)Oc1ccccc1 [Sofosbuvir, reference compound] |  |  |  |  | > 1 µM | EC50 ([4]; Hepatitis C virus, Huh-luc/neo-ET, 72 h, read-out: HCV 1b - EC50 (μM)): 0.06 µM
CCC(CC)COC(=O)[C@H](C)N[P@](=O)(OC[C@H]1O[C@@](C#N)(c2ccc3c(N)ncnn23)[C@H](O)[C@@H]1O)Oc1ccccc1 [Remdesivir, reference compound] |  | > 1 µM |  |  |  | EC50 ([1]; read-out: CoV229E - EC50 (μM)): 0.14 µM
C[C@]12CC[C@@H]3c4ccc(O)cc4C[C@@H](CCCCCCCCC[S+]([O-])CCCC(F)(F)C(F)(F)F)[C@H]3[C@@H]1CC[C@@H]2O (stereo partly shown) [Fulvestrant, reference compound] |  |  |  |  |  | IC50 ([3]; MCF7, 120 h, read-out: MCF-7 IC50 (μM)): 0.00089 µM; pIC50 ([3]; MCF7, read-out: IC50, MCF7 growth inhibition): 9.05
